The subject of test [1] is APP/PS1 transgenic AD mice. Description: New object recognition test in APP/PS1 transgenic AD mice. The test is classed as in vivo, mouse. The settings on record: continuously for 1 week, mice of 10 months old. The procedure: A new object recognition test was carried out by an open field box (40×40×35 cm, made of blue opaque plastic) with reference to a behavior test scheme recorded by Leger, M., et al. Object recognition test in mice. Nat Protoc. 8, 2531-2537 (2013). On the first day, mice were put into the open field box to adapt for 10 min. On the second day, each mouse was lightly put in the center of the box, two similar objects (a battery I) were put in the central area and freely explore for 10 min, and then the mice were sent back to feeding cages. After 3 h, the mice were put back to the box again (one battery was replaced with a doll toy which was 10 cm high) for 10 min to carry out a memory retention test. A video was analyzed by Etho Vision XT 14 software, and the time for exploring new/old objects by the mice was recorded. The discrimination index was computed as (Tnovel−Tfamliar)/(Tnovel+Tfamiliar).
APP/PS1 transgenic mice of 10 months old (purchased from MODEL ORGANISMS) were selected, and equally divided into three groups; the mice were administrated with a PBS buffer solution (group 2), […]

For test [2], the system named is hippocampal CA1 pyramidal neurons. Description: Whole-cell patch-clamp recording of spontaneous excitatory postsynaptic current (sEPSC) in hippocampus brain slice. Type of test: cell-based, mouse. Particulars: sEPSC at -70 mV, perfusion for 5 min; 5 μM in Embodiment 3. The procedure: 0.1-0.15 ml of 20% ethyl carbamate was injected into the abdominal cavity of a C57 mouse of 2 to 3 months old for anesthesia; a head was quickly cut, and brain tissues were stripped and put into artificial cerebrospinal fluid (ACSF) ice-water mixed liquid into which mixed gas (95% O2 and 5% CO2) was introduced in advance, and stood for 2 min; the ACSF included the following components: […] of NaCl, […] of KCl, 0.12 mM of NaH2PO4, 0.25 mM of CaCl2), 0.12 mM of MgCl2, 25 mM of NaHCO3 and 11 mM of glucose. A hippocampus coronal brain slice of 350 μm was cut by a vibration slicer. The hippocampus coronal brain slice was placed into the ACSF at room temperature for more than 30 min for recovery, and then the brain slice was put into a record slot; continuous perfusing was performed at a speed of 2 to 2.5 ml/min by the ACSF into which the mixed gas was introduced; blind-binding sealing was performed on hippocampus CA1 pyramidal neuron under an Olympic BX51 upright microscope; whole-cell patch-clamp was performed by an Axon700B amplifier and a 1550B digital-to-analog converter; spontaneous excitatory postsynaptic current (sEPSC) of the pyramidal neuron was recorded by a voltage clamp under the clamp voltage of −70 mV; after recording for 5 min, synthetic polypeptides such as 5 μM QD202 or QD202 N′-1, C′-1 and C′-2 for 5 min; and then perfusing and flushing were performed for 10 min by the ACSF. The recorded data was analyzed by Minianalysis software. […]
For orientation: Patch clamp records ionic current or voltage across a cell membrane.

Test [3] addresses T1, murine ATP6V1B2 1-286aa truncated sequence (Mus musculus, UniProt P62814).
T1 construct: expressed in transfected cells; host or cells: 293 cells
Description: Co-immunoprecipitation of EGFP-tagged QD202 with Myc-tagged ATP6V1B2 1-286aa truncated sequence in 293 cells. Particulars: Myc antibody, immunoblotting. Type of test: binding. An excerpt: (§1) Expression plasmids including murine ATP6V1B2 full-length sequence, 1-286aa truncated sequence or 1-172aa truncated sequence with a Myc tag are respectively constructed; the amino acid sequence of the murine ATP6V1B2 full-length sequence was as set forth in SEQ ID NO. 8, the amino acid sequence of the murine ATP6V1B21-286aa was as set forth in SEQ ID NO. 10; the amino acid sequence of the murine ATP6V1B21-172aa as set forth in as SEQ ID NO. 11; and these plasmids were respectively called as an ATP6V1B2 full-length expression plasmid, an ATP6V1B21-286aa expression plasmid and an ATP6V1B21-172aa expression plasmid. Meanwhile, a QD202 expression plasmid with an EGFP tag was constructed. […]
(§2) Then a Protein G agarose bead was added to be bound to the Myc antibody, so as to precipitate the ATP6V1B2 full-length protein, the 1-286aa truncated sequence or the 1-172aa truncated sequence, and proteins which were bound to one another, and finally the proteins subjected to co-immunoprecipitation was detected by virtue of an immunoblotting method.
A general note: A western blot detects proteins with antibodies after separation by electrophoresis.

For test [4], the target named is ATP6V1B2 (Mus musculus, UniProt P62814). Description: Co-immunoprecipitation in HEK 293 cells transfected with murine Atp6V1b2 expression plasmid with myc tag. The test is classed as binding. Set-up: expressed in transfected cells; host or cells: HEK 293. Particulars: HEK 293 cell lysate, biotin antibody, immunoblotting. As to the method: (6) A murine Atp6V1b2 expression plasmid with a myc tag at the 3′ end was constructed; the plasmid was transfected in HEK 293 cells; the cells were collected after 2 days; and cell protein was extracted. The biotin antibody and protein G agarose beads were added into a cell lysis solution for co-immunoprecipitation^[1], and the protein was eluted by the protein loading buffer solution.
Chain of ATP6V1B2 (P62814 whole entry): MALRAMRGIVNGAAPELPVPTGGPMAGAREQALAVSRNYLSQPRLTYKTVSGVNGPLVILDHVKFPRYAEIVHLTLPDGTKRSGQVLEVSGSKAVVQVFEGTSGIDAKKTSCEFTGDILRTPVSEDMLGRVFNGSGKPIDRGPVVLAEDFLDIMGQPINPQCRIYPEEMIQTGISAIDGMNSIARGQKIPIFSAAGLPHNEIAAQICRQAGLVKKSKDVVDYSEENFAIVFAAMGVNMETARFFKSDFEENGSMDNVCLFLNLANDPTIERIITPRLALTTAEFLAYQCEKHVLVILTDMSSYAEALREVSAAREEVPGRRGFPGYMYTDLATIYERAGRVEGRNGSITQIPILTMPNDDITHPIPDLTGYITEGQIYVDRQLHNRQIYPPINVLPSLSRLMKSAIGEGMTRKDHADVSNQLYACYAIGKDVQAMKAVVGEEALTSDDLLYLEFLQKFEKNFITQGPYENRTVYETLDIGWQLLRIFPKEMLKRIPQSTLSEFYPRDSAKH
(7) SDS-PAGE protein electrophoresis gel was prepared, the concentration of lower-layer separation gel was 10%, and the concentration of upper-layer concentrated gel was 4%; the sample was added into a loading hole; and the protein was detected by an immunoblotting method, with the result shown in FIG. 6b.

Test [5] addresses T2, murine ATP6V1B2 1-172aa truncated sequence (Mus musculus, UniProt P62814).
T2 construct: expressed in transfected cells; host or cells: 293 cells
Description: Co-immunoprecipitation of EGFP-tagged QD202 with Myc-tagged ATP6V1B2 1-172aa truncated sequence in 293 cells. The test is classed as binding. Particulars: Myc antibody, immunoblotting.
Text: as §1, §2

T1 sequence (P62814 1-286): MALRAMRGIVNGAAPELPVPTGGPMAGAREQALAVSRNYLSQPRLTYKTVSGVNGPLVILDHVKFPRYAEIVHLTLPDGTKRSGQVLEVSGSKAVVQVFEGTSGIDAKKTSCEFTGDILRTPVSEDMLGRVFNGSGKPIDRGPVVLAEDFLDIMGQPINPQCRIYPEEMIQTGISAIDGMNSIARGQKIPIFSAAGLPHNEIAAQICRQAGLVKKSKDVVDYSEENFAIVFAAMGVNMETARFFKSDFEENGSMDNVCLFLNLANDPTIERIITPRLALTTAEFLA
T2 sequence (P62814 1-172): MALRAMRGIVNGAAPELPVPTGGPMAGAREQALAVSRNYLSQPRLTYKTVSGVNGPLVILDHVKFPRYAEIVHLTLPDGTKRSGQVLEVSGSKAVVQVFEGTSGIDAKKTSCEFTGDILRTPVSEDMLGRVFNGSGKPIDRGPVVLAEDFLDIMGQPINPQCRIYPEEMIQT

Regarding “QD202: polypeptide synthesized according to the amino acid sequence as set forth in SEQ ID NO. 1 (YGRKKRRQRRRSPVDVVCS; QD202)”, the “learning and cognitive functions in new object recognition” value in test [1] (intragastric, 6.25 mg/kg) was “obvious improvement of learning and cognitive functions”. In addition, the “learning and cognitive functions in new object recognition” value in test [1] (intravenous, 1.25 mg/kg) was “obvious improvement on learning and cognitive functions”. Also, in test [2], the “excitatory postsynaptic current amplitude” value was “no influence”, the “release frequency of excitatory postsynaptic current” value is reported as “increasing the release frequency” and the “spontaneous excitatory synaptic transmitter release of hippocampal CA1 neurons” value is reported as “can increase the spontaneous excitatory synaptic transmitter release”. The “binding to ATP6V1B2 1-286aa truncated sequence by co-immunoprecipitation” value in test [3] is recorded as “only the full-length ATP6V1B2 protein can be combined”. In addition, the “binding to ATP6V1B2 protein by co-immunoprecipitation” value in test [4] was “specific binding between the QD202 and the ATP6V1B2 protein can be found”. Moreover, the “binding to ATP6V1B2 1-172aa truncated sequence by co-immunoprecipitation” value in test [5] is listed as “only the full-length ATP6V1B2 protein can be combined”.
